Reference: the NIST ThermoML archive (doi:10.1016/j.jct.2012.09.017)
± gives the expanded uncertainty stated by the source.

Experiment: activity coefficient (dimensionless); of the first substance listed, at infinite dilution; xn = mol fraction of the nth substance listed
Settings: 318.15 K; 101 kPa; Liquid; Chromatography; x1 = 0

Going from C1CCCCC1 [cyclohexane] + CCCC[N+]1(C)CCCC1.N#C[B-](C#N)(C#N)C#N to CC1CCCCC1 [methylcyclohexane] + CCCC[N+]1(C)CCCC1.N#C[B-](C#N)(C#N)C#N, the activity coefficient rises from 8.51 ± 0.44 to 12.2 ± 0.6.

Compared with ClCCl [dichloromethane] + CCCC[N+]1(C)CCCC1.N#C[B-](C#N)(C#N)C#N, CCO [ethanol] + CCCC[N+]1(C)CCCC1.N#C[B-](C#N)(C#N)C#N is higher in activity coefficient: 0.536 ± 0.031 for the first, 1.32 ± 0.06 for the second.

Compared with CC(C)OC(C)C [diisopropyl ether] + CCCC[N+]1(C)CCCC1.N#C[B-](C#N)(C#N)C#N, COC(=O)OC [dimethyl carbonate] + CCCC[N+]1(C)CCCC1.N#C[B-](C#N)(C#N)C#N is lower in activity coefficient: 5.87 ± 0.3 for the first, 0.522 ± 0.031 for the second.

Going from CCOC(C)=O [ethyl acetate] + CCCC[N+]1(C)CCCC1.N#C[B-](C#N)(C#N)C#N to COC(C)=O [methyl ethanoate] + CCCC[N+]1(C)CCCC1.N#C[B-](C#N)(C#N)C#N, the activity coefficient falls from 0.942 ± 0.042 to 0.671 ± 0.034.

Compared with CCc1ccccc1 [ethylbenzene] + CCCC[N+]1(C)CCCC1.N#C[B-](C#N)(C#N)C#N, CCCCCCC [heptane] + CCCC[N+]1(C)CCCC1.N#C[B-](C#N)(C#N)C#N is higher in activity coefficient: 1.65 ± 0.08 for the first, 23.2 ± 1.2 for the second.

Going from CCC1CCCCC1 [ethylcyclohexane] + CCCC[N+]1(C)CCCC1.N#C[B-](C#N)(C#N)C#N to C=CCCCCCC [oct-1-ene] + CCCC[N+]1(C)CCCC1.N#C[B-](C#N)(C#N)C#N, the activity coefficient falls from 17.6 ± 0.9 to 15.8 ± 0.8.

First: CO [methanol] + CCCC[N+]1(C)CCCC1.N#C[B-](C#N)(C#N)C#N
Second: C[N+](=O)[O-] [nitromethane] + CCCC[N+]1(C)CCCC1.N#C[B-](C#N)(C#N)C#N
The activity coefficient of the first is higher: 1.03 ± 0.05 for the first, 0.427 ± 0.029 for the second.

Same assay, conditions: 323.15 K; 101 kPa; Liquid; Chromatography; x1 = 0

Compared with C1CCCCC1 [cyclohexane] + CCCC[N+]1(C)CCCC1.N#C[B-](C#N)(C#N)C#N, CC1CCCCC1 [methylcyclohexane] + CCCC[N+]1(C)CCCC1.N#C[B-](C#N)(C#N)C#N is higher in activity coefficient: 8.26 ± 0.43 for the first, 11.8 ± 0.6 for the second.

First: ClCCl [dichloromethane] + CCCC[N+]1(C)CCCC1.N#C[B-](C#N)(C#N)C#N
Second: CCO [ethanol] + CCCC[N+]1(C)CCCC1.N#C[B-](C#N)(C#N)C#N
The activity coefficient of the first is lower: 0.542 ± 0.031 for the first, 1.27 ± 0.06 for the second.

Compared with CC(C)OC(C)C [diisopropyl ether] + CCCC[N+]1(C)CCCC1.N#C[B-](C#N)(C#N)C#N, COC(=O)OC [dimethyl carbonate] + CCCC[N+]1(C)CCCC1.N#C[B-](C#N)(C#N)C#N is lower in activity coefficient: 5.88 ± 0.3 for the first, 0.529 ± 0.031 for the second.

First: CCOC(C)=O [ethyl acetate] + CCCC[N+]1(C)CCCC1.N#C[B-](C#N)(C#N)C#N
Second: COC(C)=O [methyl ethanoate] + CCCC[N+]1(C)CCCC1.N#C[B-](C#N)(C#N)C#N
The activity coefficient of the first is higher: 0.949 ± 0.042 for the first, 0.678 ± 0.034 for the second.

Going from CCc1ccccc1 [ethylbenzene] + CCCC[N+]1(C)CCCC1.N#C[B-](C#N)(C#N)C#N to CCCCCCC [heptane] + CCCC[N+]1(C)CCCC1.N#C[B-](C#N)(C#N)C#N, the activity coefficient rises from 1.66 ± 0.08 to 22.4 ± 1.2.

CCC1CCCCC1 [ethylcyclohexane] + CCCC[N+]1(C)CCCC1.N#C[B-](C#N)(C#N)C#N and C=CCCCCCC [oct-1-ene] + CCCC[N+]1(C)CCCC1.N#C[B-](C#N)(C#N)C#N are within error of each other in activity coefficient: 17 ± 0.9 for the first, 15.4 ± 0.8 for the second.

Going from CO [methanol] + CCCC[N+]1(C)CCCC1.N#C[B-](C#N)(C#N)C#N to C[N+](=O)[O-] [nitromethane] + CCCC[N+]1(C)CCCC1.N#C[B-](C#N)(C#N)C#N, the activity coefficient falls from 0.992 ± 0.043 to 0.427 ± 0.029.

Same assay, conditions: 333.15 K; 101 kPa; Liquid; Chromatography; x1 = 0

First: CCC(C)=O [butanone] + CCCC[N+]1(C)CCCC1.O=C1O[B-]2(OC1=O)OC(=O)C(=O)O2
Second: CCOC(C)=O [ethyl acetate] + CCCC[N+]1(C)CCCC1.N#C[B-](C#N)(C#N)C#N
The activity coefficient of the first is higher: 1.13 ± 0.05 for the first, 0.967 ± 0.043 for the second.

Compared with C1CCCCC1 [cyclohexane] + CCCC[N+]1(C)CCCC1.N#C[B-](C#N)(C#N)C#N, CC1CCCCC1 [methylcyclohexane] + CCCC[N+]1(C)CCCC1.N#C[B-](C#N)(C#N)C#N is higher in activity coefficient: 7.83 ± 0.4 for the first, 11.2 ± 0.6 for the second.

Going from C1CCCCC1 [cyclohexane] + CCCC[N+]1(C)CCCC1.O=C1O[B-]2(OC1=O)OC(=O)C(=O)O2 to CC1CCCCC1 [methylcyclohexane] + CCCC[N+]1(C)CCCC1.O=C1O[B-]2(OC1=O)OC(=O)C(=O)O2, the activity coefficient rises from 20.2 ± 1 to 30 ± 1.6.

Going from ClCCl [dichloromethane] + CCCC[N+]1(C)CCCC1.N#C[B-](C#N)(C#N)C#N to CCO [ethanol] + CCCC[N+]1(C)CCCC1.N#C[B-](C#N)(C#N)C#N, the activity coefficient rises from 0.59 ± 0.03 to 1.17 ± 0.05.

Compared with ClCCl [dichloromethane] + CCCC[N+]1(C)CCCC1.O=C1O[B-]2(OC1=O)OC(=O)C(=O)O2, CCO [ethanol] + CCCC[N+]1(C)CCCC1.O=C1O[B-]2(OC1=O)OC(=O)C(=O)O2 is higher in activity coefficient: 0.745 ± 0.036 for the first, 1.92 ± 0.1 for the second.

Compared with CC(C)OC(C)C [diisopropyl ether] + CCCC[N+]1(C)CCCC1.N#C[B-](C#N)(C#N)C#N, COC(=O)OC [dimethyl carbonate] + CCCC[N+]1(C)CCCC1.N#C[B-](C#N)(C#N)C#N is lower in activity coefficient: 5.86 ± 0.3 for the first, 0.543 ± 0.031 for the second.

Compared with CC(C)OC(C)C [diisopropyl ether] + CCCC[N+]1(C)CCCC1.O=C1O[B-]2(OC1=O)OC(=O)C(=O)O2, COC(=O)OC [dimethyl carbonate] + CCCC[N+]1(C)CCCC1.O=C1O[B-]2(OC1=O)OC(=O)C(=O)O2 is lower in activity coefficient: 18.4 ± 1 for the first, 0.853 ± 0.039 for the second.

Going from CCOC(C)=O [ethyl acetate] + CCCC[N+]1(C)CCCC1.O=C1O[B-]2(OC1=O)OC(=O)C(=O)O2 to COC(C)=O [methyl ethanoate] + CCCC[N+]1(C)CCCC1.N#C[B-](C#N)(C#N)C#N, the activity coefficient falls from 1.75 ± 0.09 to 0.693 ± 0.035.

Compared with CCc1ccccc1 [ethylbenzene] + CCCC[N+]1(C)CCCC1.N#C[B-](C#N)(C#N)C#N, CCCCCCC [heptane] + CCCC[N+]1(C)CCCC1.N#C[B-](C#N)(C#N)C#N is higher in activity coefficient: 1.68 ± 0.08 for the first, 20.9 ± 1.1 for the second.

Compared with CCc1ccccc1 [ethylbenzene] + CCCC[N+]1(C)CCCC1.O=C1O[B-]2(OC1=O)OC(=O)C(=O)O2, CCCCCCC [heptane] + CCCC[N+]1(C)CCCC1.O=C1O[B-]2(OC1=O)OC(=O)C(=O)O2 is higher in activity coefficient: 3.97 ± 0.2 for the first, 62.9 ± 3.3 for the second.

CCC1CCCCC1 [ethylcyclohexane] + CCCC[N+]1(C)CCCC1.N#C[B-](C#N)(C#N)C#N and C=CCCCCCC [oct-1-ene] + CCCC[N+]1(C)CCCC1.N#C[B-](C#N)(C#N)C#N are within error of each other in activity coefficient: 15.8 ± 0.8 for the first, 14.7 ± 0.8 for the second.

Compared with CCC1CCCCC1 [ethylcyclohexane] + CCCC[N+]1(C)CCCC1.O=C1O[B-]2(OC1=O)OC(=O)C(=O)O2, CO [methanol] + CCCC[N+]1(C)CCCC1.N#C[B-](C#N)(C#N)C#N is lower in activity coefficient: 41.8 ± 2.2 for the first, 0.931 ± 0.042 for the second.

First: CO [methanol] + CCCC[N+]1(C)CCCC1.O=C1O[B-]2(OC1=O)OC(=O)C(=O)O2
Second: COC(C)=O [methyl ethanoate] + CCCC[N+]1(C)CCCC1.O=C1O[B-]2(OC1=O)OC(=O)C(=O)O2
The activity coefficient of the first is higher: 1.27 ± 0.06 for the first, 1.03 ± 0.05 for the second.

Compound C[N+](=O)[O-] [nitromethane] + CCCC[N+]1(C)CCCC1.N#C[B-](C#N)(C#N)C#N has an activity coefficient of 0.429 ± 0.029.
C[N+](=O)[O-] [nitromethane] + CCCC[N+]1(C)CCCC1.O=C1O[B-]2(OC1=O)OC(=O)C(=O)O2 gave an activity coefficient of 0.416 ± 0.029.

Same assay, conditions: 343.15 K; 101 kPa; Liquid; Chromatography; x1 = 0

Going from CCC(C)=O [butanone] + CCCC[N+]1(C)CCCC1.O=C1O[B-]2(OC1=O)OC(=O)C(=O)O2 to CCOC(C)=O [ethyl acetate] + CCCC[N+]1(C)CCCC1.N#C[B-](C#N)(C#N)C#N, the activity coefficient falls from 1.12 ± 0.05 to 0.982 ± 0.043.

Going from C1CCCCC1 [cyclohexane] + CCCC[N+]1(C)CCCC1.N#C[B-](C#N)(C#N)C#N to ClCCl [dichloromethane] + CCCC[N+]1(C)CCCC1.N#C[B-](C#N)(C#N)C#N, the activity coefficient falls from 7.44 ± 0.38 to 0.574 ± 0.032.

Going from C1CCCCC1 [cyclohexane] + CCCC[N+]1(C)CCCC1.O=C1O[B-]2(OC1=O)OC(=O)C(=O)O2 to ClCCl [dichloromethane] + CCCC[N+]1(C)CCCC1.O=C1O[B-]2(OC1=O)OC(=O)C(=O)O2, the activity coefficient falls from 17.9 ± 0.9 to 0.76 ± 0.037.

Going from CC(C)OC(C)C [diisopropyl ether] + CCCC[N+]1(C)CCCC1.N#C[B-](C#N)(C#N)C#N to COC(=O)OC [dimethyl carbonate] + CCCC[N+]1(C)CCCC1.N#C[B-](C#N)(C#N)C#N, the activity coefficient falls from 5.85 ± 0.3 to 0.556 ± 0.032.

Going from CC(C)OC(C)C [diisopropyl ether] + CCCC[N+]1(C)CCCC1.O=C1O[B-]2(OC1=O)OC(=O)C(=O)O2 to COC(=O)OC [dimethyl carbonate] + CCCC[N+]1(C)CCCC1.O=C1O[B-]2(OC1=O)OC(=O)C(=O)O2, the activity coefficient falls from 17 ± 0.9 to 0.861 ± 0.039.

Going from CCO [ethanol] + CCCC[N+]1(C)CCCC1.N#C[B-](C#N)(C#N)C#N to CCOC(C)=O [ethyl acetate] + CCCC[N+]1(C)CCCC1.O=C1O[B-]2(OC1=O)OC(=O)C(=O)O2, the activity coefficient rises from 1.09 ± 0.05 to 1.74 ± 0.09.

CCO [ethanol] + CCCC[N+]1(C)CCCC1.O=C1O[B-]2(OC1=O)OC(=O)C(=O)O2 and CCc1ccccc1 [ethylbenzene] + CCCC[N+]1(C)CCCC1.N#C[B-](C#N)(C#N)C#N are within error of each other in activity coefficient: 1.75 ± 0.09 for the first, 1.71 ± 0.09 for the second.
